Reference: patent US20120059036A1, “METHOD FOR REDUCING THROMBOCYTOPENIA AND THROMBOCYTOPENIA-ASSOCIATED MORTALITY” (priority 2008, published 2012)

What was measured:
[1] = system: patients experiencing ST-segment elevation myocardial infarction (STEMI); assay: […] Phase III study: clinical outcomes (death, reinfarction, revascularization, stent thrombosis) at 30 days and 8 months; type: in vivo, human; conditions: for probability of death/MI: within eight months after treatment, intent-to-treat population
Experimental: (§1) The inclusion criteria were (1) chest pain for longer than 30 minutes with an electrocardiographic ST-segment elevation of 1 mm or greater in two or more contiguous electrocardiogram leads, or with a new left bundle-branch block, and (2) admission either within 12 hours of symptom onset or between 12 and 24 hours after onset with evidence of continuing ischemia. The exclusion criteria included administration of fibrinolytics in the previous 30 days, major surgery within 15 days, and active bleeding or previous stroke in the last six months. Immediately after eligibility criteria were met and before the visualization of coronary arteries through angiography, the treating physician at each investigational site performed open-label assignments of study treatments via sealed envelopes.
(§2) This type of regimen is described in U.S. Pat. No. 6,770,660. Abciximab was administered in a 0.25 mg/kg bolus, followed by 0.125 μg/kg/min continuous infusion for 12 hours. The administration of both drugs began at first medical contact, before arterial sheath insertion. Heparin was given at 40 to 70 U/kg, targeting an activated clotting time of at least 200 seconds. Patients received aspirin (160-325 mg orally or 250 mg intravenously, followed by 80-125 mg/d orally indefinitely) and clopidogrel (300 mg orally and then 75 mg/d for at least three months).
(§3) A 12-lead electrocardiogram was recorded before the procedure and 90 minutes after the last balloon inflation in the infarct-related artery. Follow-up visits were scheduled at one, four, and eight months.
(§4) The data for all patients with primary end-point events were reviewed by an independent adjudication committee whose members were blinded to treatment assignments. Events adjudication was performed separately by two members, and in case of disagreement, the opinion of the third member was obtained and the final decision taken by consensus. The committee was also responsible for the adjudication of all clinical events according to the Academic Research Consortium.^18
(§5) Discrete data were summarized as frequencies, and comparisons were made with the likelihood-ratio χ^2 test or Fisher exact test. Continuous data were expressed as mean (SD) or median and interquartile range according to their distribution; comparisons were made with a one-way analysis of variance or the Kruskal-Wallis test.

[2] = system: patients experiencing ST-segment elevation myocardial infarction (STEMI); assay: […] primary end point: at least 50% resolution of ST-segment elevation on 12-lead electrocardiogram 90 minutes after PCI; type: in vivo, human; conditions: for percentage of patients achieving at least 50% ST-segment resolution / patients achieving at least 50% ST-segment resolution: intention-to-treat analysis, within 90 minutes following PCI; for patients achieving at least 50% ST-segment resolution: out of 361 patients
Experimental: as §1, §2, §3
Changes in the ST-segment of the electrocardiogram were evaluated cumulatively before and 90 minutes after intervention. ST-segment elevation was measured to the nearest 0.5 mm at 60 milliseconds after the J point by a single experienced cardiologist who was blinded to treatment assignments. […] Quantitative angiographic analyses were performed with a validated edge-detection system (CAAS II; Pie Medical, Maastricht, the Netherlands), and coronary flow was classified according to Thrombolysis in Myocardial Infarction (TIMI) criteria. Angiographic analyses and TIMI grading were performed by one independent cardiologist who was blinded to treatment assignments.
This was based on both intention-to-treat and per-protocol principles and was applied to an exploratory analysis across several prespecified subgroups. The Cochran-Mantel-Haenszel χ^2 test was performed to evaluate possible imbalances of the relative risk among different recruiting centers.

[3] = system: patients experiencing ST-segment elevation myocardial infarction (STEMI); assay: MULTISTRATEGY safety analysis: bleeding, transfusion, thrombocytopenia and thrombocytopenia-associated mortality; conditions: for Major bleeding / Minor bleedng / Moderate thrombocytoperia (<100000 cells/mm^3) / Red blood cells transfusion ≧1 Units / Red blood cells transfusion ≧2 Units / Severe thrombocytoperia (<50000 cells/mm^3): At 30 d, safety analysis
Experimental: as §1, §2, §4, §5

[4] = At 8 mo, number of patients with event
[5] = At 30 d, number of patients with event

`CCCCS(=O)(=O)N[C@@H](Cc1ccc(OCCCCC2CCNCC2)cc1)C(=O)O.Cl.O` [Tirofiban Plus Uncoated Stent] was tested, and the “Clinically driven target-vessel revascularization” value ([1]; At 8 mo, Kaplan-Meier estimate) was “(9.1) %”, the “Composite of death, reinfarction, or target-vessel revascularization” value (from here on “Composite of death, reinfarction”) ([1]; At 8 mo, Kaplan-Meier estimate) was “(12.9) %” and the Death ([1]; At 8 mo, Kaplan-Meier estimate) was “(3.8) %”. For the same molecule, the Death or reinfarction ([1]; At 8 mo, Kaplan-Meier estimate) was “(6.5) %”, the “Definite or probable or possible stent thrombosis” value ([1]; At 8 mo, Kaplan-Meier estimate) was “(4.3) %” and the “Definite or probable stent thrombosis” value ([1]; At 8 mo, Kaplan-Meier estimate) was “(3.2) %”. The Definite stent thrombosis ([1]; At 8 mo, Kaplan-Meier estimate) was “(2.2) %”, the Possible stent thrombosis ([1]; At 8 mo, Kaplan-Meier estimate) was “(1.6) %” and the Reinfarction ([1]; At 8 mo, Kaplan-Meier estimate) was “(4.3) %”. For the same molecule, the “Clinically driven target-vessel revascularization” value [1, 4] was 17 No, the “Composite of death, reinfarction” value [1, 4] was 24 No and the Death [1, 4] was 7 No. The Death or reinfarction [1, 4] was 12 No, the “Definite or probable or possible stent thrombosis” value [1, 4] was 8 No and the “Definite or probable stent thrombosis” value [1, 4] was 6 No. It also gave a Definite stent thrombosis [1, 4] of 4 No, a Possible stent thrombosis [1, 4] of 3 No and a Reinfarction [1, 4] of 8 No. For the same molecule, the “Clinically driven target-vessel revascularization” value ([1]; At 30 d, Kaplan-Meier estimate) was “(1.6) %”, the “Composite of death, reinfarction” value ([1]; At 30 d, Kaplan-Meier estimate) was “(3.8) %” and the Death ([1]; At 30 d, Kaplan-Meier estimate) was “(1.1) %”. The Death or reinfarction ([1]; At 30 d, Kaplan-Meier estimate) was “(3.8) %”, the “Definite or probable stent thrombosis” value ([1]; At 30 d, Kaplan-Meier estimate) was “(2.7) %” and the Definite stent thrombosis ([1]; At 30 d, Kaplan-Meier estimate) was “(1.6) %”. The Probable stent thrombosis ([1]; At 30 d, Kaplan-Meier estimate) was “(1.1) %”, the Reinfarction ([1]; At 30 d, Kaplan-Meier estimate) was “(2.7) %” and the “Clinically driven target-vessel revascularization” value [1, 5] was 3 No. For the same molecule, the “Composite of death, reinfarction” value [1, 5] was 7 No, the Death [1, 5] was 2 No and the Death or reinfarction [1, 5] was 7 No. The “Definite or probable stent thrombosis” value [1, 5] was 5 No, the Definite stent thrombosis [1, 5] was 3 No and the Probable stent thrombosis [1, 5] was 2 No. It also gave a Reinfarction [1, 5] of 5 No.

For `CCCCS(=O)(=O)N[C@@H](Cc1ccc(OCCCCC2CCNCC2)cc1)C(=O)O.Cl` [Tirofiban, N-(butylsulfonyl)-O-[4-(4-piperidinyl)butyl]-tyrosine monohydrochloride], the “Clinically driven target-vessel revascularization” value ([1]; At 8 mo, Kaplan-Meier estimate) was “(6.2) %”, the “Composite of death, reinfarction” value ([1]; At 8 mo, Kaplan-Meier estimate) was “(9.9) %” and the Death ([1]; At 8 mo, Kaplan-Meier estimate) was “(3.0) %”. For the same molecule, the Death or reinfarction ([1]; At 8 mo, Kaplan-Meier estimate) was “(5.9) %”, the “Definite or probable or possible stent thrombosis” value ([1]; At 8 mo, Kaplan-Meier estimate) was “(3.8) %” and the “Definite or probable stent thrombosis” value ([1]; At 8 mo, Kaplan-Meier estimate) was “(3.2) %”. For the same molecule, the Definite stent thrombosis ([1]; At 8 mo, Kaplan-Meier estimate) was “(2.7) %”, the Possible stent thrombosis ([1]; At 8 mo, Kaplan-Meier estimate) was “(0.8) %” and the Reinfarction ([1]; At 8 mo, Kaplan-Meier estimate) was “(4.3) %”. The “Clinically driven target-vessel revascularization” value [1, 4] was 23 No, the “Composite of death, reinfarction” value [1, 4] was 37 No and the Death [1, 4] was 11 No. The Death or reinfarction [1, 4] was 22 No, the “Definite or probable or possible stent thrombosis” value [1, 4] was 14 No and the “Definite or probable stent thrombosis” value [1, 4] was 12 No. The Definite stent thrombosis [1, 4] was 10 No, the Possible stent thrombosis [1, 4] was 3 No and the Reinfarction [1, 4] was 16 No. For the same molecule, the “Clinically driven target-vessel revascularization” value ([1]; At 30 d, Kaplan-Meier estimate) was “(2.2) %”, the “Composite of death, reinfarction” value ([1]; At 30 d, Kaplan-Meier estimate) was “(4.0) %” and the Death ([1]; At 30 d, Kaplan-Meier estimate) was “(1.1) %”. For the same molecule, the Death or reinfarction ([1]; At 30 d, Kaplan-Meier estimate) was “(3.8) %”, the “Definite or probable stent thrombosis” value ([1]; At 30 d, Kaplan-Meier estimate) was “(2.4) %” and the Definite stent thrombosis ([1]; At 30 d, Kaplan-Meier estimate) was “(1.9) %”. For the same molecule, the Probable stent thrombosis ([1]; At 30 d, Kaplan-Meier estimate) was “(0.5) %”, the Reinfarction ([1]; At 30 d, Kaplan-Meier estimate) was “(2.7) %” and the “Clinically driven target-vessel revascularization” value [1, 5] was 8 No. For the same molecule, the “Composite of death, reinfarction” value [1, 5] was 15 No, the Death [1, 5] was 4 No and the Death or reinfarction [1, 5] was 14 No. The “Definite or probable stent thrombosis” value [1, 5] was 9 No, the Definite stent thrombosis [1, 5] was 7 No and the Probable stent thrombosis [1, 5] was 2 No. For the same molecule, the Reinfarction [1, 5] was 10 No, the “incidence of MACE” value ([1]; At 30 days) was 4.0% and the “incidence of MACE” value ([1]; At eight months) was 9.9%. The “probability of death/MI” value [1] was 5.9%, the “recovery from ST-segment elevation after coronary intervention in comparison with abciximab” value ([2]; consistent across recruiting centers and prespecified subgroups) was “noninferior” and the “percentage of patients achieving at least 50% ST-segment resolution” value [2] was 85.3%. For the same molecule, the “patients achieving at least 50% ST-segment resolution” value [2] was 308 patients.

In the case of “Abciximab: inhibitor of the glycoprotein (GP) IIb/IIIa receptor complex; comparator drug”, the “Clinically driven target-vessel revascularization” value ([1]; At 8 mo, Kaplan-Meier estimate) is reported as “(7.3) %”, the “Composite of death, reinfarction” value ([1]; At 8 mo, Kaplan-Meier estimate) is reported as “(12.4) %” and the Death ([1]; At 8 mo, Kaplan-Meier estimate) is reported as “(4.0) %”. The Death or reinfarction ([1]; At 8 mo, Kaplan-Meier estimate) was “(7.5) %”, the “Definite or probable or possible stent thrombosis” value ([1]; At 8 mo, Kaplan-Meier estimate) was “(4.3) %” and the “Definite or probable stent thrombosis” value ([1]; At 8 mo, Kaplan-Meier estimate) was “(3.5) %”. The Definite stent thrombosis ([1]; At 8 mo, Kaplan-Meier estimate) was “(2.7) %”, the Possible stent thrombosis ([1]; At 8 mo, Kaplan-Meier estimate) was “(1.1) %” and the Reinfarction ([1]; At 8 mo, Kaplan-Meier estimate) was “(3.5) %”. For the same molecule, the “Clinically driven target-vessel revascularization” value [1, 4] was 27 No, the “Composite of death, reinfarction” value [1, 4] was 46 No and the Death [1, 4] was 15 No. The Death or reinfarction [1, 4] was 28 No, the “Definite or probable or possible stent thrombosis” value [1, 4] was 16 No and the “Definite or probable stent thrombosis” value [1, 4] was 13 No. For the same molecule, the Definite stent thrombosis [1, 4] was 10 No, the Possible stent thrombosis [1, 4] was 4 No and the Reinfarction [1, 4] was 13 No. The “Clinically driven target-vessel revascularization” value ([1]; At 30 d, Kaplan-Meier estimate) was “(1.6) %”, the “Composite of death, reinfarction” value ([1]; At 30 d, Kaplan-Meier estimate) was “(4.3) %” and the Death ([1]; At 30 d, Kaplan-Meier estimate) was “(2.4) %”. For the same molecule, the Death or reinfarction ([1]; At 30 d, Kaplan-Meier estimate) was “(3.8) %”, the “Definite or probable stent thrombosis” value ([1]; At 30 d, Kaplan-Meier estimate) was “(2.2) %” and the Definite stent thrombosis ([1]; At 30 d, Kaplan-Meier estimate) was “(1.3) %”. The Probable stent thrombosis ([1]; At 30 d, Kaplan-Meier estimate) was “(0.8) %”, the Reinfarction ([1]; At 30 d, Kaplan-Meier estimate) was “(1.3) %” and the “Clinically driven target-vessel revascularization” value [1, 5] was 6 No. For the same molecule, the “Composite of death, reinfarction” value [1, 5] was 16 No, the Death [1, 5] was 9 No and the Death or reinfarction [1, 5] was 14 No. For the same molecule, the “Definite or probable stent thrombosis” value [1, 5] was 8 No, the Definite stent thrombosis [1, 5] was 5 No and the Probable stent thrombosis [1, 5] was 3 No. The Reinfarction [1, 5] was 5 No, the “incidence of MACE” value ([1]; At 30 days) was 4.37% and the “incidence of MACE” value ([1]; At eight months) was 12.4%. The “probability of death/MI” value [1] was 7.5%, the Major bleeding [3] was “(1.6) %” and the Minor bleedng [3] was “(6.2) %”. The “Moderate thrombocytoperia (<100000 cells/mm^3)” value [3] was “(1.6) %”, the “Red blood cells transfusion ≧1 Units” value [3] was “(2.2) %” and the “Red blood cells transfusion ≧2 Units” value [3] was “(2.2) %”. The “Severe thrombocytoperia (<50000 cells/mm^3)” value [3] was “(2.4) %”, the Major bleeding ([3]; number of patients) was 6 No and the Minor bleedng ([3]; number of patients) was 23 No. The “Moderate thrombocytoperia (<100000 cells/mm^3)” value ([3]; number of patients) was 6 No, the “Red blood cells transfusion ≧1 Units” value ([3]; number of patients) was 8 No and the “Red blood cells transfusion ≧2 Units” value ([3]; number of patients) was 8 No. The “Severe thrombocytoperia (<50000 cells/mm^3)” value ([3]; number of patients) was 9 No, the “TIMI major and minor bleeding” value ([3]; At 30 days) was 7.8% and the “incidence of severe or moderate thrombocytopenia” value ([3]; At 30 days) was 4.0%. The “mortality rates of nonthrombocytopenic patients” value ([3]; HDB tirofiban compared with abciximab, follow-up, FIG. 3) was “virtually identical”, the “patients with drug-induced thrombocytopenia who died” value ([3]; within eight months, FIG. 3) was 20% and the “percentage of patients achieving at least 50% ST-segment resolution” value [2] was 83.6%. For the same molecule, the “patients achieving at least 50% ST-segment resolution” value [2] was 302 patients.
